Data set [1] relates to HeLa cells. Description: Inhibition of apoptosis by caspase inhibitor Z-VAD-fmk (cell survival). It counts as cell-based, human. The method, then: Apoptosis is predominantly caspase-mediated and can be blocked by Z-VAD-fmk whereas necrosis cannot.
Inhibition of apoptosis. HeLa cells were plated in 96-well microtiter plates at initial densities of 2,000 in 100 μL and were incubated for 72 hours before adding reagents. Cells were left untreated or were pre-treated with the caspase inhibitor Z-VAD-fmk for 3 hours (BACHEM N1510). A stock solution of 100 mM Z-VAD-fmk in DMSO was prepared and kept at −20° C. Working solution was freshly prepared by diluting the stock solution in fresh cell culture medium.

Data set [2] concerns HeLa cells. Description: Flow cytometric determination of oxidative stress (CM-H2DCFDA). It counts as cell-based, human. The method, then: Applicant also studied the oxidative stress and mitochondrial damage induced by Au1.4MS nanoparticles. […] Applicant used 0.3% H2O2 as a positive control.
Flow cytometric determination of oxidative stress. HeLa cells were plated in 6-well plates at initial densities of 40,000 in 2 mL grown for 72 hours. Fresh medium containing nanoparticles (100 μM Au1.4MS, 1000 μM Au1.1GSH and Au15MS) was added to the cells and incubated for 0, 6, 12, 18, 24, 48 hours. All cell-material combinations were set up in triplicates. After the AuNP incubation, cells were trypsinized and rinsed with PBS. After rinsing cells were suspended in a buffer containing 5-(and-6)-chloromethyl-2′7′-dichlorodihydrofluorescein diacetate acetyl ester (CM-H2DCFDA) (Molecuar Probes/Invitrogen). Cells were incubated for 30 minutes at 37° C. as described by the manufacturer. Shortly, 50 μg CM-H2DCFDA powder was dissolved in 100 μL ethanol as stock solution and was kept in −20° C. For cell assays the stock solution was freshly diluted in PBS to a final working concentration of 2.5 μM. Cells incubated with 0.3% H2O2 for 30 minutes served as positive control. 20,000 cells were analysed using FACSCalibur or FACSCanto flow cytometers and CELL-Quest software (Becton-Dickinson).

For data set [3], the system named is caspase 3/7. Description: Fluorogenic caspase activity determination (Apo-ONE caspase-3/7 assay). It counts as cell-based, human. The method, then:
To confirm that the cells underwent necrosis instead of apoptosis applicant measured the caspase 3/7 activity (FIG. 4) using the fluorogenic substrate rhodamine 110 bis-(N-CBZ-L-aspartyl-L-glutamyl-L-valyl-aspartic acid amide), Z-DEVD-R110. Caspase 3/7 enzymes cleave carboxy-terminal to the aspartate in the DEVD peptide thus converting the substrate into fluorescent rhodamine. […] Thereafter caspase 3/7 activity declined until the end of the experiment at 48 hours.
Fluorogenic caspase activity determination. […] Cells were rinsed and 30 μL of medium containing 50 μM Au1.4MS was added. Untreated cells served as negative control and cells treated with 0.2 μM staurosporine served as a positive control. Apoptosis was measured using the fluorogenic caspase substrate, Apo-ONE® homogeneous caspase-3/7 assay (Promega) as described by the manufacturer. Briefly, Apo-ONE® stock solution (100fold working concentration) was […] in Apo-One® buffer and 30 μL of this was added to each well and incubated at 23° C. for 3 hours. 50 μL of the clear supernatant was transferred to a black microtiter plate and measured using a Fluorostar plate fluorometer (BMG Labtech, Offenburg, Germany) at excitation wavelength 485 nm and emission wavelength 520 nm.

The subject of data set [4] is HeLa cells. As to the kind of experiment: Cell cycle and DNA content measurement using flow cytometry (propidium iodide). It counts as cell-based, human. How it is done: The protein p53 controls both the G2/M and the G1 cell cycle checkpoints and mediates reversible growth arrest in apoptotic fibroblasts (cf. M. Agarwal, A. Agarwal, W. Taylor, G. Stark, Proc Natl Acad Sci USA 1995, 92, 8493). To gain insight into the cell cycle progression in the context of Au1.4MS cytotoxicity, applicant measured the cellular DNA content and mitotic index of HeLa cells. […] Cells staining intermediary reside in S phase. When the HeLa cells were treated with staurosporine (curve 2) to trigger apoptosis the relative proportion of cells in G2 phase increased to 50% indicating a G2/M block of the cells. Together with the sub G1 peak and the low fluorescent peak indicating DNA fragments this pattern was typical of apoptosis. […] This is further corroborated by the fact that caspase activation, which is likewise a late event in apoptosis, but not in necrosis, was low in Au1.4MS treated cells and furthermore, that caspase inhibition by Z-VADfmk enhanced cell viability in staurosporine treated (apoptotic) cells, but not in Au1.4MS treated (secondary necrotic) cells (FIG. 4, 5).
Cell cycle and DNA content measurement using flow cytometry. HeLa cells were plated in 6-well plates and incubated for 72 hours before adding nanoparticles. […] 20,000 cells were analysed using FACSCalibur or FACSCanto flow cytometers and CELL-Quest software (Becton-Dickinson).

Data set [5] relates to HeLa cells. The following applies: for cell survival: cells pretreated with antioxidant 3 hours, washed, post-treated with 100 μM Au1.4MS 48 hours. The method, then: A) untreated cells. B) cells treated with Au1.4MS for 48 hours. C) cells pretreated with antioxidant/reducing agent for 3 hours, washed and post-treated with Au1.4MS for 48 hours. D) Au1.4MS pre-treated with antioxidant/reducing agent for 3 hours, mixture added to cells for 48 hours. E) cells pre-treated with antioxidant/reducing agent for 3 hours, then added Au1.4MS and incubated for 48 hours. F) Antioxidant/reducing agent mixed with Au1.4MS and mixture immediately added to cells and incubated for 48 hours. G) cells incubated with antioxidant/reducing agent for 48 hours.
HeLa cells were plated in 96-well microtiter plates at initial densities of 2,000 in 100 μL and were incubated for 72 hours before adding reagents. Fresh medium containing nanoparticles and/or antioxidants (reducing agents) was added to each well and cells were incubated for another 48 hours. […] Antioxidants/Reducing agents were freshly prepared by dissolving the powders in H2O to 200 mM and further diluted in fresh cell culture medium to working concentration.

Values joined by “and” are separate entries in the source; they are usually repeats but may differ in a detail not shown here. Equal values may be shown once. “Also recorded” adds a separate entry of the source. Read-outs that look alike come from different tables or passages of the source. Where a SMILES comes first, the peptide text is derived from it. The star is where a group is joined. Cbz = O=C(OCc1ccccc1)*; CH2F = FC*

`COC(=O)C[C@H](NC(=O)[C@H](C)NC(=O)[C@@H](NC(=O)OCc1ccccc1)C(C)C)C(=O)CF` [Z-VAD-fmk] (Cbz-Val-Ala-Asp(OMe)-CH2F): the “survival of staurosporin-treated HeLa cells after adding Z-VAD-fmk” value in data set [1] (32 μM Z-VAD-fmk, 48 hours) is 84% and 83%; in data set [1] (500 μM Z-VAD-fmk, 48 hours), 90%. Besides, in data set [1] (HeLa cells), the “effect of Z-VAD-fmk on survival of Au1.4MS treated cells” value is given as “did not increase the survival; also recorded: did not increase cell survival”.

As for `OO` [H2O2], in data set [2] (0.3% for 30 minutes, positive control), the “oxidative stress (intracellular ROS, CM-H2DCFDA fluorescence)” value was “strong oxidative stress; also recorded: strong ROS generation”.

As for `CN[C@@H]1C[C@H]2O[C@@](C)([C@@H]1OC)n1c3ccccc3c3c4c(c5c6ccccc6n2c5c31)C(=O)NC4` [staurosporine], in data set [3] (0.2 μM staurosporine or 50 μM Au1.4MS), the “incubation time of peak caspase 3/7 activity” value was found to be 12 h. In data set [3] (0.2 μM staurosporine, HeLa), the “Caspase 3/7 activity increase” value is 6.5 fold. The “intracellular caspase 3/7 activity increase over background” value in data set [3] (0.2 μM staurosporine, within 6 hours) is 6 fold. The same compound yielded a cell survival in data set [1] (staurosporine alone, 48 hours) of 47%. Besides, in data set [4] (propidium iodide flow cytometry, 100 μM Au1.4MS), the “DNA content / cell cycle pattern” value is “hypodiploid peak in DNA content typical of G2/M arrest and apoptosis”. For the same compound, the “relative proportion of cells in G2 phase” value in data set [4] (staurosporine treated HeLa cells) is recorded as 50%.

As for `O=C1O[C@H]([C@@H](O)CO)C(O)=C1O` [ascorbic acid], in data set [5] (NAC 3 mM, others 1 mM), the cell survival amounted to 6%.

As to `CC(=O)N[C@@H](CS)C(=O)O` [NAC, N-acetylcysteine], the “inhibition of the cytotoxicity of 100 μM Au1.4MS” value (“inhibition” below) in data set [5] is given as “partially inhibit”. For the same compound, in data set [5] (NAC 3 mM, others 1 mM), the cell survival worked out at 7%.

Consider `N[C@@H](CCC(=O)N[C@@H](CS)C(=O)NCC(=O)O)C(=O)O` [GSH, glutathione], for which the “inhibition” value in data set [5] is recorded as “partially inhibit”. In data set [5] (NAC 3 mM, others 1 mM), the cell survival was found to be 15%.

Consider `O=S(=O)([O-])c1cccc(P(c2ccccc2)c2ccccc2)c1.[Na+]` [TPPMS, triphenylphosphine monosulfonate], for which the “inhibition” value in data set [5] (HeLa, 48 hours, NAC 3 mM, others 1 mM) was “partially inhibit”. The cell survival in data set [5] (NAC 3 mM, others 1 mM) is 11%. Besides, in data set [2] (ligand alone, not shown), the “increase in intracellular fluorescence (ROS)” value is reported as “did not cause an increase in intracellular fluorescence”.
